Structures can show the parent of a compound that is named as a salt.
Test system: post-PTCA restenosis
Test: Clinical study of inhibition of post-PTCA restenosis, evaluated from coronary angiographic findings
Format: in vivo, patients with angina pectoris
Protocol: In 18 patients with angina pectoris in whom elective PTCA was indicated, 6-(1-imidazolylmethyl)- 5,6,7,8-tetrahydronaphthalene-2-carboxylic acid hydrochloride hemihydrate (hereinafter, referred to as Compound A) was administered orally in a dose of 200 mg three times a day after each meal (600 mg/day) pre-angioplasty, beginning about three days before PTCA, and post angioplasty for 3 months (treated group). Coronary angiography was performed before, immediately after, and 3 months after PTCA. Based on the coronary angiographic findings, inhibition of restenosis of the right coronary artery, left anterior descending artery and left circumflex artery was evaluated, by site of lesion, according to the criteria in Table 1 shown below. Further, based on the results of the evaluation, overall efficacy evaluation by individual patient was made.
In regard to luminal diameter: • 1. Excellent post-angioplasty course: unchanged or expanded • 2. Good post-angioplasty course: a decrease in luminal diameter of less than 50% • 3. Poor post-angioplasty course: a decrease in luminal diameter of 50% or more and less than 100% • 4. Worse post-angioplasty course: a decrease in luminal diameter of 100% or progression of stenosis as compared with pre-PTCA condition
As controls (control group), placebo was similarly administered to 15 patients with angina pectoris in whom effective PTCA was indicated and coronary angiography was performed before and after PTCA.
In both of the treated and control groups, calcium antagonists, viz. nifedipine and diltiazem, antianginal drugs, viz. ISDN and nicorandil, and antiarteriosclerotic agents, viz. elastase, etc. were used concurrently as necessary as shown in Table 2 below. However, there was no significant difference (χ² test) between the two groups in the use of concomitant drugs, as in other patient characteristics.

[1] = Left Anterior Descending Artery, number of lesions rated (of 9), 600 mg/day oral, 3 months after PTCA
[2] = Left Circumflex Artery, number of lesions rated (of 11), 600 mg/day oral, 3 months after PTCA
[3] = Right Coronary Artery, number of lesions rated (of 8), 600 mg/day oral, 3 months after PTCA
[4] = Total, number of lesions rated (of 28), Wilcoxon test P=0.100 vs control group
[5] = number of patients rated (of 18), Wilcoxon test P=0.010 vs control group

O=C(O)c1ccc2c(c1)CCC(Cn1ccnc1)C2 (stereo not drawn) [Compound A, 6-(1-imidazolylmethyl)-5,6,7,8-tetrahydronaphthalene-2-carboxylic acid hydrochloride hemihydrate]
Overall Efficacy Evaluation, by Individual Patient: Excellent, Cumulative % (18 patients): (38.9%)
Overall Efficacy Evaluation, by Individual Patient: Good, Cumulative % (18 patients, Excellent plus Good): (77.8%)
Evaluation of coronary angiographic findings by site of lesion: Excellent [1]: 4
Evaluation of coronary angiographic findings by site of lesion: Good [1]: 3
Evaluation of coronary angiographic findings by site of lesion: Poor [1]: 1
Evaluation of coronary angiographic findings by site of lesion: Worse [1]: 1
Evaluation of coronary angiographic findings by site of lesion: Excellent [2]: 2
Evaluation of coronary angiographic findings by site of lesion: Good [2]: 7
Evaluation of coronary angiographic findings by site of lesion: Poor [2]: 1
Evaluation of coronary angiographic findings by site of lesion: Worse [2]: 1
Evaluation of coronary angiographic findings by site of lesion: Excellent [3]: 3
Evaluation of coronary angiographic findings by site of lesion: Good [3]: 4
Evaluation of coronary angiographic findings by site of lesion: Poor [3]: 0
Evaluation of coronary angiographic findings by site of lesion: Worse [3]: 1
Evaluation of coronary angiographic findings by site of lesion: Excellent, Cumulative % (Total of 28 lesions): (32.1%)
Evaluation of coronary angiographic findings by site of lesion: Good, Cumulative % (Total of 28 lesions, Excellent plus Good): (83.1%)
Evaluation of coronary angiographic findings by site of lesion: Excellent [4]: 9
Evaluation of coronary angiographic findings by site of lesion: Good [4]: 14
Evaluation of coronary angiographic findings by site of lesion: Poor [4]: 2
Evaluation of coronary angiographic findings by site of lesion: Worse [4]: 3
Overall Efficacy Evaluation, by Individual Patient: Excellent (number of patients rated (of 18), Wilcoxon test P=0.010, Fisher test (excellent ratings) P=0.009 vs control group): 7
Overall Efficacy Evaluation, by Individual Patient: Good [5]: 7
Overall Efficacy Evaluation, by Individual Patient: Poor [5]: 3
Overall Efficacy Evaluation, by Individual Patient: Worse [5]: 1

Source: patent EP0385381A2, “Inhibitor of restenosis after percutaneous transluminal coronary angioplasty” (DAIICHI PHARMACEUTICAL CO., LTD., priority 1989, dated 1990)
